How the values were obtained:
[1] = target: human CB1 receptor (hCB1) (Homo sapiens, UniProt P21554); type: cell-based
rat CB2 receptor (rCB2) = target: T1, rat CB2 receptor (rCB2) (Rattus norvegicus, UniProt Q9QZN9)
T1 sequence (Q9QZN9 1-360): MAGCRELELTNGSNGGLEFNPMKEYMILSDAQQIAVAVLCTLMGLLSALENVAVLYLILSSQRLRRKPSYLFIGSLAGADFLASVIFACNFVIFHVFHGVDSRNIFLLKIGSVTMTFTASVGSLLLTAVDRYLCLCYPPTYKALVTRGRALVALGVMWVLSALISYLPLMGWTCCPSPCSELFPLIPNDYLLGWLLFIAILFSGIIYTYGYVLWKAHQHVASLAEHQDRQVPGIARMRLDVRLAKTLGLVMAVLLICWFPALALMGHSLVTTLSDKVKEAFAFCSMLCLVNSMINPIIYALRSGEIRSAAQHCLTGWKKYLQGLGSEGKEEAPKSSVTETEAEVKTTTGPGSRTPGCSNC

Chain of human CB1 receptor (hCB1) (P21554 whole entry): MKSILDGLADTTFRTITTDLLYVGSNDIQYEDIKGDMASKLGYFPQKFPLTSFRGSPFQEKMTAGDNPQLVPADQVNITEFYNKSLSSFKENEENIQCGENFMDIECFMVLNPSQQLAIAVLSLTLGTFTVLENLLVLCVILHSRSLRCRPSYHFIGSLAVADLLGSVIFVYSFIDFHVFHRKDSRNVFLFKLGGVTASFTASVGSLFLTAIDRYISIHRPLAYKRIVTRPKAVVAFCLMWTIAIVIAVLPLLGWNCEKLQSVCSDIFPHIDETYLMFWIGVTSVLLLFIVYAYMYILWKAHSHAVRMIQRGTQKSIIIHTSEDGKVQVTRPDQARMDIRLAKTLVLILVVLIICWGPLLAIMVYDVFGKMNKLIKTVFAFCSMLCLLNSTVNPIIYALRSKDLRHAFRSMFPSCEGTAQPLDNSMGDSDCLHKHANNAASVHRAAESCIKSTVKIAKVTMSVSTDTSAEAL

**Q.** `COC(=O)C1CN(C(=O)c2nc(-c3cc(Cl)c(F)cc3F)n3c2CN(C)CCC3)CCC1=O` (centres unmarked) [Compound 826, methyl 1-(3-(5-chloro-2,4-difluorophenyl)-8-methyl-6,7,8,9-tetrabydro-5H-imidazo[1,5-a][1,4]diazepine-1-carbonyl)-4-oxopiperidine-3-carboxylate] was tested. Which EC50 [1] did it give?
**A.** Its EC50 is over 10 µM.

**Q.** With `CN1CCCn2c(-c3cc(Cl)ccc3F)nc(C(=O)N[C@H](CN)C(C)(C)C)c2C1` [Compound 768, (S)-N-(1-amino-3,3-dimethylbutan-2-yl)-3-(5-chloro-2-fluorophenyl)-8-methyl-6,7,8,9-tetrahydro-5H-imidazol[1,5-a][1,4]diazepine-1-carboxamide] as the compound, how does the EC50 [1] read?
**A.** Its EC50 is over 10 µM.

**Q.** How did the EC50 [1] turn out when `CN1CCCn2c(-c3cc(F)c(F)cc3F)nc(C(=O)N3CC(O)C3)c2C1` [Compound 856, (3-hydroxyazetidin-1-yl)(8-methyl-3-(2,4,5-trifluorophenyl)-6,7,8,9-tetrahydro-5H-imidazo[1,5-a][1,4]diazepin-1-yl)methanone] was run?
**A.** The EC50 was over 10 µM.

**Q.** `CNC(=O)[C@@H](NC(=O)c1nc(C2CCN(C(=O)C(C)C)CC2)n2c1CN(C)CCC2)C(C)(C)C` [Compound 728, (S)-N-(3,3-dimethyl-1-(methylamino)-1-oxobutan-2-yl)-3-(1-isobutyrylpiperidin-4-yl)-8-methyl-6,7,8,9-tetrahydro-5H-imidazo[1,5-a][1,4]diazepine-1-carboxamide] was tested. Which EC50 [1] did it give?
**A.** The EC50 was over 10 µM.

**Q.** How did the EC50 [1] turn out when `CNC(=O)[C@@H](NC(=O)c1nc(-c2cccc(F)c2OC)n2c1CN(C)CCC2)C(C)(C)C` [Compound 657, (S)-N-(3,3-dimethyl-1-(methylamino)-1-oxobutan-2-yl)-3-(3-fluoro-2-methoxyphenyl)-8-methyl-6,7,8,9-tetrahydro-5H-imidazo[1,5-a][1,4]diazepine-1-carboxamide] was run?
**A.** Its EC50 is over 10 µM.

**Q.** Which EC50 [1] does the source give for `CN1CCCn2c(-c3cc(F)c(F)cc3F)nc(C(=O)N3CCOCC3)c2C1` [Compound 859, (8-methyl-3-(2,4,5-trifluorophenyl)-6,7,8,9-tetrahydro-5H-imidazo[1,5-a][1,4]diazepin-1-yl)(morpholino)methanone] here?
**A.** Its EC50 is over 10 µM.

**Q.** Which EC50 [1] does the source give for `CN1CCCn2c(-c3cc(Cl)c(F)cc3F)nc(C(=O)N3CCC(F)(F)C3)c2C1` [Compound 824, (3-(5-chloro-2,4-difluorophenyl)-8-methyl-6,7,8,9-tetrahydro-5H-imidazo[1,5-a][1,4]diazepin-1-yl)(3,3-difluoropyrrolidin-1-yl)methanone] here?
**A.** Its EC50 is over 10 µM.

**Q.** With `CN1CCCn2c(-c3cc(Cl)ccc3F)nc(C(=O)N[C@H](C(=O)N[C@H]3CN4CCC3CC4)C(C)(C)C)c2C1` [Compound 744, 3-(5-chloro-2-fluorophenyl)-N-((S)-3,3-dimethyl-1-oxo-1-((R)-quinuclidin-3-ylamino)butan-2-yl)-8-methyl-6,7,8,9-tetrahydro-5H-imidazo[1,5-a][1,4]diazepine-1-carboxamide] as the compound, how does the EC50 [1] read?
**A.** Its EC50 is over 10 µM.

**Q.** `CNC(=O)[C@@H](NC(=O)c1nc(-c2cnn(CC(C)C)c2)n2c1CN(C)CCC2)C(C)(C)C` [Compound 710, (S)-N-(3,3-dimethyl-1-(methylamino)-1-oxobutan-2-yl)-3-(1-isobutyl-1H-pyrazol-4-yl)-8-methyl-6,7,8,9-tetrahydro-5H-imidazo[1,5-a][1,4]diazepine-1-carboxamide] was tested. Which EC50 [1] did it give?
**A.** The EC50 was over 10 µM.

**Q.** Which EC50 [1] does the source give for `CC1CCN(CC(C)(C)NC(=O)c2nc(-c3cc(Cl)c(F)cc3F)n3c2CN(C)CCC3)CC1` [Compound 880, 3-(5-chloro-2,4-difluorophenyl)-8-methyl-N-(2-methyl-1-(4-methylpiperidin-1-yl)propan-2-yl)-6,7,8,9-tetrahydro-5H-imidazo[1,5-a][1,4]diazepine-1-carboxamide] here?
**A.** Its EC50 is over 10 µM.

**Q.** For `CN1CCCn2c(-c3cc(C(F)(F)F)ccc3F)nc(C(=O)N[C@H](C(=O)NCCF)C(C)(C)C)c2C1` [Compound 810, (S)-3-(2-fluoro-5-(trifluoromethyl)phenyl)-N-(1-(2-fluoroethylamino)-3,3-dimethyl-1-oxobutan-2-yl)-8-methyl-6,7,8,9-tetrahydro-5H-imidazo[1,5-a][1,4]diazepine-1-carboxamide], which EC50 [1] is on record?
**A.** The EC50 was over 10 µM.

**Q.** For `CN1CCCn2c(-c3cc(F)c(F)cc3F)nc(C(=O)NC(C)(C)CO)c2C1` [Compound 765, N-(1-hydroxy-2-methylpropan-2-yl)-8-methyl-3-(2,4,5-trifluorophenyl)-6,7,8,9-tetrahydro-5H-imidazo[1,5-a][1,4]diazepine-1-carboxamide], which EC50 [1] is on record?
**A.** Its EC50 is over 10 µM.

**Q.** For `CN1CCCn2c(-c3cc(Cl)ccc3F)nc(C(=O)N[C@H](CN3CCCC3=O)C(C)(C)C)c2C1` [Compound 769, (S)-3-(5-chloro-2-fluorophenyl)-N-(3,3-dimethyl-1-(2-oxopyrrolidin-1-yl)butan-2-yl)-8-methyl-6,7,8,9-tetrahydro-5H-imidazo[1,5-a][1,4]diazepine-1-carboxamide], which EC50 [1] is on record?
**A.** The EC50 was over 10 µM.

**Q.** With `CNC(=O)[C@@H](NC(=O)c1nc(-c2cccnc2Cl)n2c1CN(C)CCC2)C(C)(C)C` [Compound 628, (S)-3-(2-chloropyridin-3-yl)-N-(3,3-dimethyl-1-(methylamino)-1-oxobutan-2-yl)-8-methyl-6,7,8,9-tetrahydro-5H-imidazo[1,5-a][1,4]diazepine-1-carboxamide] as the compound, how does the EC50 [1] read?
**A.** Its EC50 is over 10 µM.

**Q.** With `CNC(=O)[C@@H](NC(=O)c1nc(-c2cc(F)c(F)cc2F)n2c1CN(C(C)=O)CCC2)C(C)(C)C` [Compound 818, (S)-8-acetyl-N-(3,3-dimethyl-1-(methylamino)-1-oxobutan-2-yl)-3-(2,4,5-trifluorophenyl)-6,7,8,9-tetrahydro-5H-imidazo[1,4]diazepine-1-carboxamide] as the compound, how does the EC50 [1] read?
**A.** Its EC50 is over 10 µM.

**Q.** For `CNC(=O)[C@@H](NC(=O)c1nc(-c2ccccc2C)n2c1CN(C)CCC2)C(C)(C)C` [Compound 647, (S)-N-(3,3-dimethyl-1-(methylamino)-1-oxobutan-2-yl)-8-methyl-3-o-tolyl-6,7,8,9-tetrahydro-5H-imidazo[1,5-a][1,4]diazepine-1-carboxamide], which EC50 [1] is on record?
**A.** The EC50 was over 10 µM.

**Q.** For `CNC(=O)[C@@H](NC(=O)c1nc(-c2ccnc(-c3ccnc(Cl)c3)c2)n2c1CN(C)CCC2)C(C)(C)C` [Compound 625, (S)-3-(2′-chloro-2,4′-bipyridin-4-yl)-N-(3,3-dimethyl-1-(methylamino)-1-oxobutan-2-yl)-8-methyl-6,7,8,9-tetrahydro-5H-imidazo[1,5-a][1,4]diazepine-1-carboxamide], which EC50 [1] is on record?
**A.** Its EC50 is over 10 µM.

**Q.** `CN1CCCn2c(-c3cc(Cl)c(F)cc3F)nc(C(=O)N3CC[C@H](O)C3)c2C1` [Compound 910, (S)-(3-(5-chloro-2,4-difluorophenyl)-8-methyl-6,7,8,9-tetrahydro-5H-imidazo[1,5-a][1,4]diazepin-1-yl)(3-hydroxypyrrolidin-1-yl)methanone] was tested. Which EC50 [1] did it give?
**A.** The EC50 was over 10 µM.

**Q.** How did the EC50 [1] turn out when `CN1CCCn2c(-c3cc(F)c(F)cc3F)nc(C(=O)N3CCCCC3CN3CCOCC3)c2C1` (centres unmarked) [Compound 789, (8-methyl-3-(2,4,5-trifluorophenyl)-6,7,8,9-tetrahydro-5H-imidazo[1,5-a][1,4]diazepin-1-yl)(2-(morpholinomethyl)piperidin-1-yl)methanone] was run?
**A.** The EC50 was over 10 µM.

**Q.** `CNC(=O)C1(NC(=O)c2nc(-c3cc(F)c(F)cc3F)n3c2CN(C)CCC3)CCCC1` [Compound 719, 8-methyl-N-(1-(methylcarbamoyl)cyclopentyl)-3-(2,4,5-trifluorophenyl)-6,7,8,9-tetrahydro-5H-imidazo[1,5-a][1,4]diazepine-1-carboxamide] was tested. Which EC50 [1] did it give?
**A.** The EC50 was over 10 µM.

**Q.** For `CNC(=O)C1(NC(=O)c2nc(-c3cc(Cl)c(F)cc3F)n3c2CN(C)CCC3)CC1` [Compound 905, 3-(5-chloro-2,4-difluorophenyl)-8-methyl-N-(1-(methylcarbamoyl)cyclopropyl)-6,7,8,9-tetrahydro-5H-imidazo[1,5-a][1,4]diazepine-1-carboxamide], which EC50 [1] is on record?
**A.** Its EC50 is over 10 µM.

**Q.** `CC(=O)NC[C@@H](NC(=O)c1nc(-c2cc(Cl)ccc2F)n2c1CN(C)CCC2)C(C)(C)C` [Compound 770, (S)-N-(1-acetamido-3,3-dimethylbutan-2-yl)-3-(5-chloro-2-fluorophenyl)-8-methyl-6,7,8,9-tetrahydro-5H-imidazo[1,5-a][1,4]diazepine-1-carboxamide] was tested. Which EC50 [1] did it give?
**A.** Its EC50 is over 10 µM.

**Q.** For `CC(C)(C)[C@H](NC(=O)c1nc(-c2ccccc2)n2c1CNCC2)C(=O)N1CCOCC1` [Compound 733, (S)-N-(3,3-dimethyl-1-morpholino-1-oxobutan-2-yl)-3-phenyl-5,6,7,8-tetrahydroimidazo[1,5-a]pyrazine-1-carboxamide], which EC50 [1] is on record?
**A.** Its EC50 is over 10 µM.

**Q.** With `CNC(=O)[C@@H](NC(=O)c1nc(C2CCN(S(=O)(=O)c3ccccc3)CC2)n2c1CN(C)CCC2)C(C)(C)C` [Compound 727, (S)-N-(3,3-dimethyl-1-(methylamino)-1-oxobutan-2-yl)-8-methyl-3-(1-(phenylsulfonyl)piperidin-4-yl)-6,7,8,9-tetrahydro-5H-imidazo[1,5-a][1,4]diazepine-1-carboxamide] as the compound, how does the EC50 [1] read?
**A.** Its EC50 is over 10 µM.

**Q.** `CC12CCC(C1)C(C)(C)C2NC(=O)c1nc(-c2ccccc2)n2c1CN(C(=O)C1CC1)CC2` (centres unmarked) [Compound 119, 7-(cyclopropanecarbonyl)-3-phenyl-N-(1,3,3-trimethyl-bicyclo[2.2.1]heptan-2-yl)-5,6,7,8-tetrahydroimidazo[1,5-a]pyrazine-1-carboxamide] was tested. Which EC50 (rat CB2 receptor (rCB2)) did it give?
**A.** Its EC50 is 0.01 to 0.1 µM.

**Q.** For `O=C(NC1CCCCC1)c1nc(-c2ccccc2)n2c1CN(CC1CCOC1)CC2` (centres unmarked) [Compound 141, N-cyclohexyl-3-phenyl-7-((tetrahydrofuran-3-yl)methyl)-5,6,7,8-tetrahydroimidazo[1,5-a]pyrazine-1-carboxamide], which EC50 (rat CB2 receptor (rCB2)) is on record?
**A.** The EC50 was 0.01 to 0.1 µM.

— patent publication US8431565B2 (priority 2007, dated 2013)
